Reference: ChEMBL document CHEMBL4811249, “Semisynthesis of Dolabellane Diterpenes: Oxygenated Analogues with Increased Activity against Zika and Chikungunya Viruses” (J Nat Prod, 2021)
The source made the active and inactive calls. No cut-off for these calls is given here.

Assays:
Chikungunya virus [1] = experiment: Antiviral activity against CHIKV infected in African green monkey Vero cells assessed as inhibition of viral replication at 20 uM measured after 4 days relative to control; format: functional; conditions: 96 h, time 4 day; for inhibition at 20 µM: Chikungunya virus, Vero
Zika virus [2] = experiment: Antiviral activity against Zika virus infected in African green monkey Vero cells assessed as inhibition of viral replication at 20 uM measured after 4 days relative to control; format: functional; conditions: 96 h, time 4 day; for inhibition at 20 µM: Zika virus, Vero; for inhibition (INH): 20 µM
Vero = experiment: (§1) Cytotoxicity against African green monkey Vero cells by MTT assay; format: cell-based; conditions: chlorocebus sabaeus, vero
[3] = as §1; format: cell-based; conditions: chlorocebus sabaeus, Vero cells
Zika virus [4] = experiment: Antiviral activity against Zika virus infected in African green monkey Vero cells assessed as reduction in viral replication by measuring viral titre after 72 hrs by plaque reduction assay; format: functional, organism-based
Chikungunya virus [5] = experiment: Antiviral activity against CHIKV infected in African green monkey Vero cells assessed as reduction in viral replication by measuring viral titre after 72 hrs by plaque reduction assay; format: functional, organism-based
[6] = Selectivity index, ratio of CC50 for African green monkey Vero cells to EC50 for Zika virus; format: toxicity; conditions: read-out: Ratio CC50/EC50
[7] = Selectivity index, ratio of CC50 for African green monkey Vero cells to EC50 for CHIKV; format: toxicity; conditions: read-out: Ratio CC50/EC50
Chikungunya virus [8] = experiment: Virucidal activity against CHIKV infected in African green monkey Vero cells at 5 to 20 uM measured after 4 hrs; format: functional, organism-based; conditions: dose 5-20 µM
Chikungunya virus [9] = experiment: Antiviral activity against CHIKV infected in African green monkey Vero cells assessed as inhibition of viral adsorption at 20 uM measured after 4 days by crystal violet staining based assay relative to control; format: functional; conditions: 96 h, time 4 day
Zika virus [10] = experiment: Virucidal activity against Zika virus infected in African green monkey Vero cells at 20 uM measured after 4 hrs relative to control; format: functional
Zika virus [11] = experiment: Antiviral activity against Zika virus infected in African green monkey Vero cells assessed as inhibition of viral adsorption at 20 uM measured after 4 days by crystal violet staining based assay relative to control; format: functional; conditions: 96 h, time 4 day

| SMILES | inhibition at 20 µM (Chikungunya virus [1]) | inhibition at 20 µM (Zika virus [2]) | CC50 [3] | further results |
| --- | --- | --- | --- | --- |
| NC(=O)c1ncn([C@@H]2O[C@H](CO)[C@@H](O)[C@H]2O)n1 [RIBAVIRIN] | 97% | 93% | – | – |
| COC1(C)CC[C@@H](O)[C@]2(C)CC[C@@H]3C(=C(C)C)C(=O)C[C@@]3(C)C[C@@H]12 (relative stereo; 19) | – | – | – | inhibition (INH) (Chikungunya virus [1]; 20 µM): 40%; inhibition (INH) (Zika virus [2]): 59%; CC50 (Vero): 650 µM |
| CC(C)=C1[C@H]2CC[C@@]3(C)O[C@@H]3CC[C@@]3(C)O[C@@H]3C[C@]2(C)C[C@@H]1O | 98% | 81% | 1000 µM | EC50 (Zika virus [4]): 8.9 µM; EC50 (Chikungunya virus [5]): 0.7 µM; selectivity ratio [6]: 110; selectivity ratio [7]: 1400 |
| CC(=O)O[C@@H]1C[C@@]2(C)C/C=C(\C)CC/C=C(\C)CC[C@@H]2C1=C(C)C | 99% | 62% | 100 µM | EC50 (Chikungunya virus [5]): 1.2 µM; selectivity ratio [7]: 83; Activity (Chikungunya virus [8]): Active; inhibition at 20 µM (Chikungunya virus [9]): > 90% |
| CC(C)=C1C(=O)C[C@@]2(C)C[C@H]3O[C@]3(C)CC/C=C(\C)CC[C@H]12 | 82% | 65% | 470 µM | EC50 (Chikungunya virus [5]): 9.5 µM; selectivity ratio [7]: 50 |
| CC(=O)OC/C1=C\CC/C(C)=C/C[C@]2(C)CC(=O)C(=C(C)C)[C@H]2CC1 | 0% | 30% | 250 µM | – |
| C=C(C)C1=CC[C@@]2(C)C/C=C(\C)CC/C=C(\CO)CC[C@H]12 | 0% | 61% | 600 µM | – |
| CC(C)=C1C(=O)C[C@@]2(C)C/C=C(\C)CC[C@H]3O[C@]3(C)CC[C@H]12 | 99% | 38% | 530 µM | EC50 (Chikungunya virus [5]): 1.2 µM; selectivity ratio [7]: 440; Activity (Chikungunya virus [8]): Active; inhibition at 20 µM (Chikungunya virus [9]): > 90% |
| CC(C)=C1[C@H]2CC[C@@]3(C)O[C@@H]3CC/C(C)=C/C[C@]2(C)C[C@@H]1O | 45% | 99% | 580 µM | EC50 (Zika virus [4]): 1.2 µM; selectivity ratio [6]: 480; Activity (Zika virus [10]): 80% |
| CC1=CC[C@@H](O)[C@]2(C)CC[C@@H]3C(=C(C)C)C(=O)C[C@@]3(C)C[C@@H]12 | 65% | 99% | 580 µM | EC50 (Zika virus [4]): 2.1 µM; selectivity ratio [6]: 280 |
| CC(C)=C1C(=O)C[C@@]2(C)C/C=C(\C=O)CC[C@H]3O[C@]3(C)CC[C@H]12 | 39% | 99% | 750 µM | EC50 (Zika virus [4]): 0.9 µM; selectivity ratio [6]: 830; Activity (Zika virus [10]): 90% |
| C[C@H]1/C=C/[C@@]2(C)CC[C@@H](C(C)(C)O)[C@@H]2[C@@H](O)C[C@](C)(O)/C=C/C1 | 35% | 50% | 400 µM | – |
| CC(C)=C1[C@H]2CC/C(C)=C/CC/C(C)=C/C[C@]2(C)C[C@@H]1O | 0% | 51% | 190 µM | – |
| CC(C)=C1[C@H](O)C[C@@]2(C)C/C=C(\C)CC[C@H]3O[C@]3(C)CC[C@H]12 | 33% | 30% | 430 µM | – |
| CC(C)=C1C(=O)C[C@@]2(C)C/C=C(\CO)CC[C@H]3O[C@]3(C)CC[C@H]12 | 71% | 60% | 800 µM | EC50 (Chikungunya virus [5]): 13 µM; selectivity ratio [7]: 61 |
| CC(C)=C1C(=O)C[C@@]2(C)C[C@H]3O[C@]3(C)CC[C@H]3O[C@]3(C)CC[C@H]12 | 0% | 56% | 960 µM | – |
| CC(C)=C1C(=O)C[C@@]2(C)C/C=C(\C)CC/C=C(\C=O)CC[C@H]12 | 29% | 0% | 100 µM | – |
| COC1(C)CC[C@@H](O)[C@]2(C)CC[C@@H]3C(=C(C)C)C(=O)C[C@@]3(C)C[C@@H]12 (relative stereo; 18) | 25% | – | 730 µM | inhibition (INH) (Zika virus [2]): 100%; EC50 (Zika virus [4]): 1.8 µM; selectivity ratio [6]: 410; inhibition at 20 µM (Zika virus [11]): > 90% |
| CC(C)=C1C(=O)C[C@@]2(C)C/C=C(\C)CC/C=C(\C)CC[C@H]12 [DOLABELLANE] | 0% | 0% | 150 µM | – |
| CC(C)=C1[C@H](O)C[C@@]2(C)C[C@H]3O[C@]3(C)CC[C@H]3O[C@]3(C)CC[C@H]12 | 44% | 49% | 960 µM | – |
| C=C(C)C1=CC[C@@]2(C)C[C@H]3O[C@]3(C)CC[C@H]3O[C@]3(C)CC[C@H]12 | 0% | 60% | 480 µM | – |
